Experimental data: patent publication US8772495B2, “5-lipoxygenase-activating protein inhibitor” (Panmira Pharmaceuticals, LLC, priority 2008, dated 2014)
Entries after “also recorded” stand apart in the source; their conditions may differ. Where two headings read alike, the source gives them in different places.

Experiments:
[1] = target: CYP2C19 (Homo sapiens (Human), UniProt P33261); test: Extracellular cytochrome P450 inhibition (microsomes); assay type: in vitro ADME; conditions: mephenytoin 4′-hydroxylation
From the text: Final solvent concentrations were 1% (v/v) or less.

[2] = Liquid formulations for oral solutions/suspensions; assay type: physicochemical; conditions: below pH values of about 9-10
Description: Values of pH reported were estimated based on pH indicating strips. […] Accordingly, provided in certain embodiments herein were formulations having a pH above about 9, above about 10 or of about 10. In certain embodiments, the formulation was buffered at a pH of about 10. All formulations prepared were sonicated for about 10 minutes.

[3] = tested on: whole blood ionophore-stimulated leukotriene LTB4; test: Phase I study: ex vivo ionophore-stimulated LTB4; assay type: in vivo, human; conditions: in vivo
From the text: Study Design: Single center, double-blind, randomized, placebo-controlled, single ascending dose followed by multiple ascending dose study.
Sample Size: (1) Single Dose Phase: eight (8) subjects (6 active, 2 placebo) per dose level; up to 5 dose levels are planned (a total of 40 subjects if all 5 dose levels are completed); and (2) Multiple Dose Phase: eight (8) subjects (6 active, 2 placebo) per dose level; up to 4 dose levels are planned (a total of 32 subjects if all 4 dose levels are completed).
Formulations: Compound 2 was supplied as an oral powder for reconstitution. Placebo solution matched. […] The placebo differed only in the absence of the active.
The following dosing cohorts were used:
Routes of Administration: All doses were administered orally with approximately 100 mL of water rinse. Subjects were fasted for at least 8 hours prior to dosing and for 2 hours after dosing. For BID dosing in the Multiple Dose Phase, when applicable, subjects were fasted for at least 2 hours prior to the second daily dose.
Plasma concentrations of Compound 1 were determined using a validated LC/MS method. Whole blood ionophore-stimulated leukotriene LTB4 and urinary LTE4 production were assayed by ELISA and mass spectrometry, respectively.
Analysis of Samples: Concentrations of Compound 1 was determined in plasma samples collected from subjects. Similarly, concentrations of LTB4 in plasma and urinary LTE4 were determined in blood and urine samples collected.

[4] = Oral dosing of amorphous phase A and Form C in rats; assay type: in vivo
[5] = Physical and chemical stability of polymorphs (storage, humidity chamber); assay type: physicochemical; conditions: for XRPD pattern after one week stability study: 40° C. and 75% RH, one week in humidity chamber
[6] = Thermodynamic aqueous solubility by HPLC; assay type: physicochemical; conditions: water, 25° C.
Description: The suspension was equilibrated at 25° C. for 24 hours then the pH was measured. The suspension was then filtered through a glass fibre C filter into a 96 well plate. […] Quantitation was by HPLC with reference to a standard solution of approximately 0.1 mg.ml^−1 in DMSO. Different volumes of the standard, diluted and undiluted sample solutions were injected.
Analysis was performed on an Agilent HP1100 series system equipped with a diode array detector and using ChemStation software vB.02.01-SR1.

[7] = Gravimetric vapour sorption (GVS); assay type: physicochemical; conditions: for XRPD pattern after the GVS experiment: after full sorption/desorption cycle; for water adsorbed (GVS): at 90% RH
Description: Sorption isotherms were obtained using a Hiden IGASorp moisture sorption analyser, controlled by CFRSorp software. The sample temperature was maintained at 25° C. by a Huber re-circulating water bath. The humidity was controlled by mixing streams of dry and wet nitrogen, with a total flow rate of 250 ml. min^−1. The relative humidity was measured by a calibrated Vaisala RH probe (dynamic range of 0-95% RH), located near the sample. The weight change, (mass relaxation) of the sample as a function of % RH was constantly monitored by the microbalance (accuracy ±0.001 mg).
Typically 10-20 mg of sample was placed in a tared mesh stainless steel basket under ambient conditions. The sample was loaded and unloaded at 40% RH and 25° C. (typical room conditions).
A moisture sorption isotherm was performed as outlined below (2 scans giving 1 complete cycle). The standard isotherm was performed at 25° C. at 10% RH intervals over a 0-90% RH range.
The software uses a least squares minimisation procedure together with a model of the mass relaxation, to predict an asymptotic value. The measured mass relaxation value must be within 5% of that predicted by the software, before the next % RH value is selected. The minimum equilibration time was set to 1 hour and the maximum to 4 hours.

[8] = female, CD-1, mouse, in vivo, po, 250 mg/kg/day, 4 days
Description: Twenty-four hours following the final drug administration mice were placed into an enclosed Plexiglas chamber and exposed to CO2 for a period of 30-60 seconds or until breathing ceased. They were then removed subject to cervical dislocation and blood taken via a cardiac puncture. Mice were next placed in a supine position and a midline incision made. All organs were inspected and the livers removed by careful dissection. Liver weights were recorded as well as any gross abnormalities.

Chain of CYP2C19 (P33261 whole entry): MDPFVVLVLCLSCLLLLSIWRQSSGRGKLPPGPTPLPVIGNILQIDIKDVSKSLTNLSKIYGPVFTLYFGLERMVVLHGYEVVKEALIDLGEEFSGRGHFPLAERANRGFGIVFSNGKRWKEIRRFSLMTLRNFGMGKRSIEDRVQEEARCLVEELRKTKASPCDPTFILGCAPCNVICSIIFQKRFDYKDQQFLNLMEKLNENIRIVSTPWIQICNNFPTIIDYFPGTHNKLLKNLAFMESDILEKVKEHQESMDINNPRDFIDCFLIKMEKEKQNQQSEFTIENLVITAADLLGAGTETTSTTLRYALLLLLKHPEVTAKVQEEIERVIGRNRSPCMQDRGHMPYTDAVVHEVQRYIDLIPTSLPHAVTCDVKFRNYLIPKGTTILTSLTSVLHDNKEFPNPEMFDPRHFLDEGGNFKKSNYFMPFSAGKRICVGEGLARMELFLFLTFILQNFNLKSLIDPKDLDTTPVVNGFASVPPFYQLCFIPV

**Q.** Which IC50 [1] does the source give for CCC1(c2ccccc2)C(=O)NC(=O)N(Cc2ccccc2)C1=O (single isomer, unassigned; (-)) [(−)-N-3-benzyl-phenobarbital, reference compound] here?
**A.** The IC50 was 2800 nM.

**Q.** Which “solubility in certain solvent systems” value [2] does the source give for CCOc1ccc(-c2ccc(Cn3c(CC(C)(C)C(=O)O)c(SC(C)(C)C)c4cc(OCc5ccc(C)cn5)ccc43)cc2)cn1 [Compound 1, 3-[3-(tert-butylsulfanyl)-1-[4-(6-ethoxy-pyridin-3-yl)benzyl]-5-(5-methyl-pyridin-2-yl-methoxy)-1H-indol-2-yl]-2,2-dimethylpropanoic acid] here?
**A.** Its value is “sparingly soluble”.

**Q.** And the “plasma concentration at complete inhibition of ionophore-stimulated LTB4 production” value [3]?
**A.** The value was 1000 to 1500 ng/mL.

**Q.** Which “plasma exposures after oral dosing” value [4] does the source give for CCOc1ccc(-c2ccc(Cn3c(CC(C)(C)C(=O)[O-])c(SC(C)(C)C)c4cc(OCc5ccc(C)cn5)ccc43)cc2)cn1.[Na+] [Amorphous Phase A, sodium 3-[3-(tert-butylsulfanyl)-1-[4-(6-ethoxy-pyridin-3-yl)benzyl]-5-(5-methyl-pyridin-2-yl-methoxy)-1H-indol-2-yl]-2,2-dimethylpropionate] here?
**A.** Its value is “equivalent plasma exposures”.

**Q.** And the “XRPD pattern after one week stability study” value [5]?
**A.** Its value is “remains amorphous”.

**Q.** What about the “physical and chemical stability” value ([5]; listed as Amphorous Phase A) of the same compound?
**A.** The value was “chemically stable”.

**Q.** And the Concentration of filtrate ([6]; 24 hours)?
**A.** Its Concentration of filtrate is >10 mg/mL of free base.

**Q.** What about the “Appearance of mixture after equilibration for 24 hours” value ([6]; listed as Compound 2 Phase A) of the same compound?
**A.** The value was “Suspension”.

**Q.** What about the “pH of unfiltered saturated solution” value ([6]; listed as Compound 2 Phase A) of the same compound?
**A.** Its value is 9.14.

**Q.** And the hygroscopicity [7]?
**A.** The hygroscopicity was “hygroscopic”.

**Q.** What about the “XRPD pattern after the GVS experiment” value [7] of the same compound?
**A.** Its value is “No changes were observed”.

**Q.** What about the “water adsorbed (GVS)” value [7] of the same compound?
**A.** The value was “more than 22%”.

**Q.** What about the “water adsorbed (GVS)” value ([7]; listed as Amphorous Phase A) of the same compound?
**A.** The value was “more than 20%”.

**Q.** What about the hygroscopicity ([7]; listed as Amphorous Phase A) of the same compound?
**A.** Its hygroscopicity is “hygroscopic”.

**Q.** Which results are given for CCOc1ccc(-c2ccc(Cn3c(CC(C)(C)C(=O)[O-])c(SC(C)(C)C)c4cc(OCc5ccc(C)cn5)ccc43)cc2)cn1.[Na+] [Form C, sodium 3-[3-(tert-butylsulfanyl)-1-[4-(6-ethoxy-pyridin-3-yl)benzyl]-5-(5-methyl-pyridin-2-yl-methoxy)-1H-indol-2-yl]-2,2-dimethylpropionate]?
**A.** plasma exposures after oral dosing [4]: equivalent plasma exposures; physical and chemical stability [5]: physically and chemically stable; physical and chemical stability ([5]; 5° C., 25° C./60% RH and 40° C./75% RH for at least one month): physically and chemically stable; XRPD pattern after one week stability study ([5]; listed as polymorph Form C): remains unchanged; hygroscopicity [7]: non-hygroscopic; also recorded: nonhygroscopic; XRPD pattern after the GVS experiment ([7]; listed as polymorph Form C): No changes were observed; water adsorbed (GVS) [7]: < 9%; water adsorbed (GVS) ([7]; listed as polymorph Form C): 8.2%; hygroscopicity ([7]; listed as polymorph Form C): significantly less hygroscopic than the amorphous material

**Q.** What does the source list for CCOc1ccc(-c2ccc(Cn3c(CC(C)(C)C(=O)[O-])c(SC(C)(C)C)c4cc(OCc5ccc(C)cn5)ccc43)cc2)cn1.[Na+] [Solvated Form B, sodium 3-[3-(tert-butylsulfanyl)-1-[4-(6-ethoxy-pyridin-3-yl)benzyl]-5-(5-methyl-pyridin-2-yl-methoxy)-1H-indol-2-yl]-2,2-dimethylpropionate]?
**A.** physical and chemical stability [5]: physically and chemically stable; hygroscopicity [7]: hygroscopic; XRPD pattern after the GVS experiment ([7]; listed as Polymorph Form B): becomes almost totally amorphous; water adsorbed (GVS) [7]: more than 30%; water adsorbed (GVS) ([7]; listed as Polymorph Form B): more than 30%; hygroscopicity ([7]; listed as Polymorph Form B): hygroscopic

**Q.** For CC(c1cc2ccccc2s1)N(O)C(N)=O (centres unmarked) [Zileuton, zileuton, reference compound], which Liver weight [8] is on record?
**A.** Its Liver weight is 1.6 ± 0.2.

**Q.** And the “Liver weight (% body weight)” value [8]?
**A.** The value was 5.5 % body weight.

**Q.** And the “liver weight change as compared to vehicle control” value [8]?
**A.** Its value is 31.0%.
